Reference: PubChem BioAssay AID1963974 (Molecular Pharmacology Branch, DTP, NCI, 2024)

Test system: 648629-189-R-J1-PDC spheroids with HUVEC/MSC, viability
Assay: Anticancer human tumor 648629-189-R-J1-PDC patient-derived bladder carcinoma cell line growth inhibition [PI3K]
Details: for IC50: curve of first compound; for viability, T/C: stronger effect = lower value
Method in brief: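 Tumor cells grown as multi-cell spheroids with HUVEC endothelial cells and MSC fibroblast-like stroma were treated with targeted agents combined with inavolisib, alpelisib, duvelisib or copanlisib. Doses fell in half-log steps from near clinical Cmax, else from 10 microM. Viability was measured.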

[1] = second compound 0.0316 µM, first compound 0.000316 µM
[2] = second compound 0.0316 µM, first compound 0.001 µM
[3] = second compound 0.0316 µM, first compound 0.00316 µM
[4] = second compound 0.0316 µM, first compound 0.01 µM
[5] = second compound 0.0316 µM, first compound 0.0316 µM
[6] = second compound 0.0316 µM, first compound 0.1 µM
[7] = second compound 0.1 µM, first compound 0.000316 µM
[8] = second compound 0.1 µM, first compound 0.001 µM
[9] = second compound 0.1 µM, first compound 0.00316 µM
[10] = second compound 0.1 µM, first compound 0.01 µM
[11] = second compound 0.1 µM, first compound 0.0316 µM
[12] = second compound 0.1 µM, first compound 0.1 µM
[13] = second compound 0.316 µM, first compound 0.000316 µM
[14] = second compound 0.316 µM, first compound 0.001 µM
[15] = second compound 0.316 µM, first compound 0.00316 µM
[16] = second compound 0.316 µM, first compound 0.01 µM
[17] = second compound 0.316 µM, first compound 0.0316 µM
[18] = second compound 0.316 µM, first compound 0.1 µM
[19] = second compound 1 µM, first compound 0.000316 µM
[20] = second compound 1 µM, first compound 0.001 µM
[21] = second compound 1 µM, first compound 0.00316 µM
[22] = second compound 1 µM, first compound 0.01 µM
[23] = second compound 1 µM, first compound 0.0316 µM
[24] = second compound 1 µM, first compound 0.1 µM
[25] = second compound 3.16 µM, first compound 0.000316 µM
[26] = second compound 3.16 µM, first compound 0.001 µM
[27] = second compound 3.16 µM, first compound 0.00316 µM
[28] = second compound 3.16 µM, first compound 0.01 µM
[29] = second compound 3.16 µM, first compound 0.0316 µM
[30] = second compound 3.16 µM, first compound 0.1 µM
[31] = second compound 10 µM, first compound 0.000316 µM
[32] = second compound 10 µM, first compound 0.001 µM
[33] = second compound 10 µM, first compound 0.00316 µM
[34] = second compound 10 µM, first compound 0.01 µM
[35] = second compound 10 µM, first compound 0.0316 µM
[36] = second compound 10 µM, first compound 0.1 µM
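Further: spheroids exposed to agents for seven days before reading.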
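Wherever viability, T/C is given: percent of vehicle control luminescence where 100% = DMSO treated spheroids.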

## CC(=O)c1c(C)c2cnc(Nc3ccc(N4CCNCC4)cn3)nc2n(C2CCCC2)c1=O + Cc1nc(NC(=O)N2CCCC2C(N)=O)sc1-c1ccnc(C(C)(C)C(F)(F)F)c1
Second compound 0.0316 µM
  IC50: > 100 nM
Second compound 0.1 µM
  IC50: > 100 nM
Second compound 0.316 µM
  IC50: > 100 nM
Second compound 1 µM
  IC50: > 100 nM
Second compound 3.16 µM
  IC50: > 100 nM
Second compound 10 µM
  IC50: < 0.316 nM
[1]
  viability, T/C: 91.4%
[2]
  viability, T/C: 91.7%
[3]
  viability, T/C: 100%
[4]
  viability, T/C: 100%
[5]
  viability, T/C: 96.6%
[6]
  viability, T/C: 101%
[7]
  viability, T/C: 91.1%
[8]
  viability, T/C: 96.9%
[9]
  viability, T/C: 93.7%
[10]
  viability, T/C: 91.9%
[11]
  viability, T/C: 107%
[12]
  viability, T/C: 91.2%
[13]
  viability, T/C: 80.9%
[14]
  viability, T/C: 86.1%
[15]
  viability, T/C: 85.1%
[16]
  viability, T/C: 84.1%
[17]
  viability, T/C: 90.2%
[18]
  viability, T/C: 85.3%
[19]
  viability, T/C: 72.4%
[20]
  viability, T/C: 68.1%
[21]
  viability, T/C: 73.7%
[22]
  viability, T/C: 71.7%
[23]
  viability, T/C: 70.5%
[24]
  viability, T/C: 71.9%
[25]
  viability, T/C: 52.6%
[26]
  viability, T/C: 53.2%
[27]
  viability, T/C: 61.6%
[28]
  viability, T/C: 54.9%
[29]
  viability, T/C: 54.6%
[30]
  viability, T/C: 54.6%
[31]
  viability, T/C: 36.5%
[32]
  viability, T/C: 44.9%
[33]
  viability, T/C: 38.9%
[34]
  viability, T/C: 30.1%
[35]
  viability, T/C: 44.1%
[36]
  viability, T/C: 34%

## CC(C)n1nc(-c2ccc3oc(N)nc3c2)c2c(N)ncnc21 + Cc1nc(NC(=O)N2CCCC2C(N)=O)sc1-c1ccnc(C(C)(C)C(F)(F)F)c1
Second compound 0.0316 µM
  IC50: 58.6 nM
Second compound 0.1 µM
  IC50: 56.7 nM
Second compound 0.316 µM
  IC50: 52.7 nM
Second compound 1 µM
  IC50: 33.3 nM
Second compound 3.16 µM
  IC50: 11 nM
Second compound 10 µM
  IC50: < 0.316 nM
[1]
  viability, T/C: 111%
[2]
  viability, T/C: 95.1%
[3]
  viability, T/C: 109%
[4]
  viability, T/C: 97.5%
[5]
  viability, T/C: 70.2%
[6]
  viability, T/C: 32.6%
[7]
  viability, T/C: 102%
[8]
  viability, T/C: 94.9%
[9]
  viability, T/C: 91.7%
[10]
  viability, T/C: 84.6%
[11]
  viability, T/C: 68%
[12]
  viability, T/C: 32.8%
[13]
  viability, T/C: 87.3%
[14]
  viability, T/C: 83.5%
[15]
  viability, T/C: 83.5%
[16]
  viability, T/C: 82%
[17]
  viability, T/C: 66.1%
[18]
  viability, T/C: 29.1%
[19]
  viability, T/C: 80.9%
[20]
  viability, T/C: 85.2%
[21]
  viability, T/C: 74.2%
[22]
  viability, T/C: 64.5%
[23]
  viability, T/C: 53.9%
[24]
  viability, T/C: 23.2%
[25]
  viability, T/C: 63.9%
[26]
  viability, T/C: 54.8%
[27]
  viability, T/C: 60.5%
[28]
  viability, T/C: 48.6%
[29]
  viability, T/C: 40.7%
[30]
  viability, T/C: 19.1%
[31]
  viability, T/C: 41.4%
[32]
  viability, T/C: 37.5%
[33]
  viability, T/C: 37.5%
[34]
  viability, T/C: 33.6%
[35]
  viability, T/C: 27.7%
[36]
  viability, T/C: 9.34%
